What was measured:
Assay type in all cases: in vivo
[1] = test system: horseweed (Erigeron canadensis); test: Test A postemergence application, visual injury rating 0-100
Outline: (§1)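 Compound in a non-phytotoxic, surfactant-containing solvent is applied either as a directed soil spray before seedlings emerge or onto emerged plants 2-10 cm tall; pots hold a loam-sand blend. Plants grow 10 days under greenhouse conditions and are rated by eye against untreated controls (0 no effect, 100 complete control).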

[2] = test system: kochia (Bassia scoparia); test: as above
Outline: as §1

[3] = test system: green foxtail (Setaria viridis); test: as above
Outline: as §1

[4] = test system: corn (Zea mays); test: as above
Outline: as §1

[5] = test system: wheat (Triticum aestivum); test: as above
Outline: as §1

[6] = test system: soybean (Glycine max); test: as above
Outline: as §1

[7] = test system: palmer (palmer amaranth, palmer pigweed, Amaranthus palmeri); test: as above
Outline: as §1

[8] = test system: oat, wild (wild oat, Avena fatua); test: as above
Outline: as §1

[9] = test system: barnyardgrass (Echinochloa crus-galli); test: as above
Outline: as §1

[10] = test system: blackgrass (Alopecurus myosuroides); test: as above
Outline: as §1

[11] = test system: ryegrass, Italian (italian ryegrass, Lolium multiflorum); test: as above
Outline: as §1

[12] = test system: galium (catchweed bedstraw, Galium aparine); test: as above
Outline: as §1

[13] = test system: ragweed (common ragweed, Ambrosia artemisiifolia); test: as above
Outline: as §1

[14] = test system: kochia (Bassia scoparia); test: Test A preemergence soil spray, visual injury rating 0-100; conditions: 10 days
Outline: as §1

[15] = test system: green foxtail (Setaria viridis); test: as above; conditions: 10 days
Outline: as §1

[16] = test system: corn (Zea mays); test: as above; conditions: 10 days
Outline: as §1

[17] = test system: wheat (Triticum aestivum); test: as above; conditions: 10 days
Outline: as §1

[18] = test system: soybean (Glycine max); test: as above; conditions: 10 days
Outline: as §1

[19] = test system: palmer (palmer amaranth, palmer pigweed, Amaranthus palmeri); test: as above; conditions: 10 days
Outline: as §1

[20] = test system: oat, wild (wild oat, Avena fatua); test: as above; conditions: 10 days
Outline: as §1

[21] = test system: barnyardgrass (Echinochloa crus-galli); test: as above; conditions: 10 days
Outline: as §1

[22] = test system: blackgrass (Alopecurus myosuroides); test: as above; conditions: 10 days
Outline: as §1

[23] = test system: ryegrass, Italian (italian ryegrass, Lolium multiflorum); test: as above; conditions: 10 days
Outline: as §1

[24] = test system: ragweed (common ragweed, Ambrosia artemisiifolia); test: as above; conditions: 10 days
Outline: as §1

[25] = test system: barnyardgrass (Echinochloa crusgalli); test: Test B flooded paddy test, visual plant response rating 0-100; conditions: 250 g ai/ha, Flood, applied to paddy water, evaluated after 13 days
Outline: (§2)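 Compounds applied to standing paddy water (3 cm above soil, maintained for the test duration) on 2-leaf-stage plants; visual rating vs controls at 13 days, greenhouse.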

[26] = test system: sedge, umbrella (small-flower umbrella sedge, Cyperus difformis); test: as above; conditions: 250 g ai/ha, Flood, applied to paddy water, evaluated after 13 days
Outline: as §2

[27] = test system: ducksalad (Heteranthera limosa); test: as above; conditions: 250 g ai/ha, Flood, applied to paddy water, evaluated after 13 days
Outline: as §2

[28] = test system: rice (Oryza sativa); test: as above; conditions: 250 g ai/ha, Flood, applied to paddy water, evaluated after 13 days
Outline: as §2

[29] = 62 g ai/ha, postemergence, 10 days, 0 = no effect, 100 = complete control
[30] = Postemergence, 16 g ai/ha, greenhouse 10 days, 0 no effect, 100 complete control
[31] = 62 g ai/ha, 0 = no effect, 100 = complete control

CC1(C(=O)NC2CC=C(C(=O)O)C2)CN(c2cc(Cl)cc(Cl)c2)C(=O)O1 (stereo not shown) [Compound 157]
60: Kochia plant response rating (0-100) [2, 29] | Soybean plant response rating (0-100) [6, 29] | Ryegrass, Italian plant response rating (0-100) [11, 29]
70: Galium plant response rating (0-100) [12, 29]
10: Foxtail, Green plant response rating (0-100) [3, 29]
30: Wheat plant response rating (0-100) [5, 29] | Blackgrass plant response rating (0-100) [10, 29] | Galium plant response rating (0 to 100 scale) [12, 30] | Ragweed plant response rating (0-100) [13, 29] | Barnyardgrass plant response rating (0-100) [21, 31]
0: Horseweed plant response rating (0-100) [1, 29] | Horseweed plant response rating (0 to 100 scale) [1, 30] | Foxtail, Green plant response rating (0 to 100 scale) [3, 30] | Corn plant response rating (0-100) [4, 29] | Corn plant response rating (0 to 100 scale) [4, 30] | Wheat plant response rating (0 to 100 scale) [5, 30] | Pigweed, Palmer plant response rating (0 to 100 scale) [7, 30] | Oat, Wild plant response rating (0-100) [8, 29] | Oat, Wild plant response rating (0 to 100 scale) [8, 30] | Barnyardgrass plant response rating (0 to 100 scale) [9, 30] | Blackgrass plant response rating (0 to 100 scale) [10, 30] | Ryegrass, Italian plant response rating (0 to 100 scale) [11, 30] | Ragweed plant response rating (0 to 100 scale) [13, 30] | Kochia plant response rating ([14]; 16 g ai/ha, 0 to 100 scale) | Kochia plant response rating (0-100) [14, 31] | Foxtail, Green plant response rating ([15]; 16 g ai/ha, 0 to 100 scale) | Foxtail, Green plant response rating (0-100) [15, 31] | Corn plant response rating ([16]; 16 g ai/ha, 0 to 100 scale) | Corn plant response rating (0-100) [16, 31] | Wheat plant response rating ([17]; 16 g ai/ha, 0 to 100 scale) | Wheat plant response rating (0-100) [17, 31] | Soybean plant response rating ([18]; 16 g ai/ha, 0 to 100 scale) | Soybean plant response rating (0-100) [18, 31] | Pigweed, Palmer plant response rating ([19]; 16 g ai/ha, 0 to 100 scale) | Pigweed, Palmer plant response rating (0-100) [19, 31] | Oat, Wild plant response rating ([20]; 16 g ai/ha, 0 to 100 scale) | Oat, Wild plant response rating (0-100) [20, 31] | Barnyardgrass plant response rating ([21]; 16 g ai/ha, 0 to 100 scale) | Blackgrass plant response rating ([22]; 16 g ai/ha, 0 to 100 scale) | Blackgrass plant response rating (0-100) [22, 31] | Ryegrass, Italian plant response rating ([23]; 16 g ai/ha, 0 to 100 scale) | Ryegrass, Italian plant response rating (0-100) [23, 31] | Ragweed plant response rating ([24]; 16 g ai/ha, 0 to 100 scale) | Ragweed plant response rating (0-100) [24, 31] | Plant response rating, Barnyardgrass (0 to 100 scale, 0 is no effect and 100 is complete control) [25] | Plant response rating, Sedge, Umbrella (0 to 100 scale, 0 is no effect and 100 is complete control) [26] | Plant response rating, Ducksalad (0 to 100 scale, 0 is no effect and 100 is complete control) [27] | Plant response rating, Rice (0 to 100 scale, 0 is no effect and 100 is complete control) [28]
40: Soybean plant response rating (0 to 100 scale) [6, 30] | Barnyardgrass plant response rating (0-100) [9, 29]
50: Kochia plant response rating (0 to 100 scale) [2, 30] | Pigweed, Palmer plant response rating (0-100) [7, 29]
